Data reported in patent US10342806B2, “Hormone treatment for age-related hearing loss-presbycusis” (priority 2014, dated 2019).

Key:
NKCC1 ubiquitination = assay: Immunoprecipitation (autoubiquitination assay) of NKCC1 in HT-29 cells; format: cell-based, human; conditions: MG132 20 μM 2 h, then ALD 1 μM and/or GSK 650394 50 μM for 24 h
Protocol: Immunoprecipitation (autoubiquitination assay) and western blot analysis. An autoubiquitination assay was followed (Garg, et al., Effect of the Na—K-2Cl cotransporter NKCC1 on systemic blood pressure and smooth muscle tone. Am J Physiol Heart Circ Physiol 292: H2100-H2105, 2007). Cell extracts were prepared in a modified radioimmunoprecipitation assay 1 (RIPA) buffer, containing the following (in mM): 50 Tris·HCl at pH 7.4, 150 NaCl, 1 EDTA, and 1 dithiothreitol with 1% Nonidet P-40, 0.1% SDS; in a 1:200-diluted protease inhibitor cocktail (Sigma), containing the following (in mM): 1 PMSF, 10 NEM, and 0.1 iodoacetamide Immunoprecipitations were accomplished using a rabbit polyclonal anti-NKCC1 antibody (Cell Signaling). Antibody was bound to lysate with endogenous NKCC1, and then beads were added. Bound proteins were eluted in 1× SDS sample buffer, fractionated on an SDS-polyacrylamide gel, transferred onto a […] membrane (GE Healthcare, Piscataway, N.J.), and immunoblotted with anti-ubiquitin antibody visualized using enhanced chemiluminescence detection reagents (Pears, Shelton Conn.) according to the manufacturer's instructions.
Immunoblotting with anti-ubiquitin antibody was performed as described above.
ALD decreases the endogenous ubiquitination of NKCC1 and inhibition of SGK1 activation blocks this downregulation. […]

LC3-I, -II, and LAMP-2 = assay: Lysosome pathway markers in HT-29 cells, Western blot; format: cell-based, human; conditions: ALD 1 μM, MG-132 20 μM, CQ 50 μM, 9 h
Protocol: FIG. 23(A) is a blot and showing ubiquitination, but not the lysosome pathway, is involved in the regulation of NKCC1 by ALD. To exclude the possibility that depletion of free ubiquitin by the prolonged MG-132 treatment triggered nonspecific inhibition of lysosome degradation of NKCC1 and investigate whether ALD is involved in a lysosome pathway, a parallel experiment with chloroquine (CQ) was performed. Here, the positive marks (+) indicate application of ALD (1 μM), MG132 (20 μM), CQ (50 μM), ALD+CQ, and MG132+CQ for 9 h. An autophagosome marker, autophagy-related gene 8 named as light chain 3 (LC3), and the lysosome-associated membrane protein 2 (LAMP-2) were used was indicators of lysosome pathway activation (phagocytic activity) under treatment with CQ.
Western blot. Cell lysates were prepared in RIPA buffer (Pierce 89901; Thermo Scientific, Waltham, Mass.) with protease inhibitor cocktail (78430; Thermo Scientific). Cell samples were homogenized in buffer, followed by centrifugation at 2,000 rpm for 10 min at 4° C. Supernatants were subjected to Western blot analysis by loading 200 μg of protein per lane, after the protein concentrations were determined by Bradford protein assay. Proteins were fractionated by SDS-PAGE gel electrophoresis and transferred to a PVDF blotting membrane (Whatman, Piscataway, N.J.). The blot was incubated with primary antibodies against β-actin and Na—K-2C1 cotransport protein (Cell Signaling, Danvers Mass.); primary antibodies for p-SGK1, SGK1, pNedd4-2, and Nedd4-2 were utilized (concentration 1:1,000). The secondary antibody was horseradish peroxidaseconjugated goat anti-rabbit IgG (1:2,000; Cell Signaling).
Ubiquitination, but not the lysosome pathway, is involved in NKCC1 induction by ALD. A parallel experiment was performed with chloroquine (CQ), a lysosome inhibitor, to exclude the possibility that prolonged MG-132 treatment depleted free ubiquitin by nonspecific inhibition of lysosome degradation of NKCC1 and to confirm whether or not ALD is involved in a lysosome pathway. […]

## C[C@]12CCC(=O)C=C1CC[C@@H]1[C@@H]2[C@@H](O)C[C@]2(C=O)[C@@H](C(=O)CO)CC[C@@H]12 [ALD, aldosterone]
NKCC1 ubiquitination
  endogenous ubiquitinated NKCC1: significantly reduced
LC3-I, -II, and LAMP-2
  lysosome pathway markers LC3II and LAMP-2 expression levels: without increasing lysosome pathway markers
